A short description of this series: Pharmacokinetic evaluation of paliperidone prodrugs in rats, intramuscular administration (Study 1 and Study 2). The class given is in vivo, Sprague-Dawley rats. The note with it: male rats, IM, milled crystalline suspension, plasma by LC-MS/MS; for Cmax: combined Study 1 and Study 2, compared in The FIGURE with the other prodrugs tested; for Tmax: combined Study 1 and Study 2, shown in The FIGURE. On the procedure: Two PK studies were conducted using intramuscular (IM) administration in rats of water-insoluble paliperidone prodrugs and the results were combined in The FIGURE.
Animals: 18 Male Sprague-Dawley rats (Charles River Laboratories, Wilmington, Mass.) were used in the study. Three groups of 6 rats were used and are referred to in this study as Groups A, B and C. Rats were approximately 350-375 g at time of arrival. Rats are housed 2 per cage with ad libitum chow and water. Environmental conditions in the housing room: 64-67° F., 30% to 70% relative humidity, and 12:12-h light:dark cycle. All experiments were approved by the institutional animal care and use committee.
Pharmacokinetics study: Rats were dosed IM by means of a 23 gauge, 1 inch needle with 1 cc syringe 0.3 mL suspension was withdrawn from the vial containing the test compound in suspension. The rat was injected in the muscles of the hind limb after anesthesia with isoflurane. Blood samples were collected via a lateral tail vein after brief anesthesia with Isoflurane. A 27½ G needle and 1 cc syringe without an anticoagulant was used for the blood collection. Approximately 35 0 μL of whole blood was collected at each sampling time point of 6 hours, 24 hours and 2, 5, 7, 9, 12, 14, 21, 28, 35 days after administration. Once collected, whole blood was immediately transferred to tubes containing K2 EDTA, inverted 10-15 times and immediately placed on ice. The tubes were centrifuged for 2 minutes at >14,000 g's (11500 RPMs using Eppendorf Centrifuge 5417C, F45-30-11 rotor) at room temperature to separate plasma. Plasma samples were transferred to labeled plain tubes (MICROTAINER®) and stored frozen at <−70° C.
Data Analysis: Drug concentrations in plasma samples were analyzed by liquid chromatography-mass spectroscopy (LC-MS/MS) using appropriate parameters for each compound. Half-life of Paliperidone, maximal concentration (Cmax), time to maximal concentration (Tmax), and AUC were calculated by using WinNonlin version 5.2 software (Pharsight, St. Louis, Mo.).
Pharmacokinetics study: Rats were dosed IM by means of a 23 gauge, 1 in. needle with 1 cc syringe 0.3 mL suspension was withdrawn from the vial containing the test compound in suspension. The rat was injected in the muscles of the hind limb after anesthesia with isoflurane. Blood samples were collected via a lateral tail vein after brief anesthesia with Isoflurane. […]
Data Analysis: Drug concentrations in plasma samples were analyzed by liquid chromatography-mass spectroscopy (LC-MS/MS) using appropriate parameters for each compound. Half-life, maximal concentration, time to maximal concentration and AUC were calculated by using WinNonlin version 5.2 software (Pharsight, St. Louis, Mo.). […]

Consider `CCCCCCCCCCCCCCCC(=O)OCOC1CCCn2c1nc(C)c(CCN1CCC(c3noc4cc(F)ccc34)CC1)c2=O` (stereo not shown) [Compound 157], for which the Cmax result is recorded as “lower than that of the other compounds” and the Tmax result is on record as “delayed”.
As to `CCCCCCCCCCCCCCCC(=O)OC1CCCn2c1nc(C)c(CCN1CCC(c3noc4cc(F)ccc34)CC1)c2=O` (stereo not shown) [PP, Paliperidone Palmitate], the Cmax result is given as “lower than that of the other compounds” and the Tmax entry is given as “delayed”.

The record behind these values is patent US20110166156A1, “Prodrugs for the Treatment of Schizophrenia and Bipolar Disease” (Alkermes, Inc., priority 2010, published 2011).
